Test system: MV-4-11 cells
Assay: Gene expression microarray analysis (Affymetrix PrimeView) and GSEA
Type: cell-based, human
Parameters: RFU PODN (11730768_x_at) / Fold change /veh PODN (11730768_x_at) / RFU LINC00158 (11744669_a_at) / Fold change /veh LINC00158 (11744669_a_at) / RFU DUSP10 (11751237_a_at) / Fold change /veh DUSP10 (11751237_a_at) / RFU ID3 (11757404_x_at) / Fold change /veh ID3 (11757404_x_at) / RFU PLEKHG5 (11737974_s_at) / Fold change /veh PLEKHG5 (11737974_s_at) / RFU LRRC4B (11730491_at) / Fold change /veh LRRC4B (11730491_at) / RFU GIMAP4 (11747438_a_at) / Fold change /veh GIMAP4 (11747438_a_at) / RFU KRT8 (11758183_x_at) / Fold change /veh KRT8 (11758183_x_at) / RFU CNN1 (11734310_a_at) / Fold change /veh CNN1 (11734310_a_at) / RFU VPS37D (11726825_at) / Fold change /veh VPS37D (11726825_at) / RFU C10orf10 (11716522_x_at) / Fold change /veh C10orf10 (11716522_x_at) / RFU KIR2DL2 /// KIR2DL4 /// KIR2DL5A /// KIR2DL5B /// KIR2DS1 /// KIR2DS2 /// KIR2DS3 /// KIR2DS4 /// KIR3DL3 /// KIR3DL3 /// KIR3DS1 (11738374_at) / Fold change /veh KIR2DL2 /// KIR2DL4 /// KIR2DL5A /// KIR2DL5B /// KIR2DS1 /// KIR2DS2 /// KIR2DS3 /// KIR2DS4 /// KIR3DL3 /// KIR3DL3 /// KIR3DS1 (11738374_at) / RFU C1QL1 (11718748_at) / Fold change /veh C1QL1 (11718748_at) / RFU TMPRSS4 (11747572_a_at) / Fold change /veh TMPRSS4 (11747572_a_at) / RFU HAMP (11756126_x_at) / Fold change /veh HAMP (11756126_x_at) / RFU RNFT2 (11725882_a_at) / Fold change /veh RNFT2 (11725882_a_at) / RFU NR4A2 (11747474_a_at) / Fold change /veh NR4A2 (11747474_a_at) / RFU ABCC12 (11746883_a_at) / Fold change /veh ABCC12 (11746883_a_at) / RFU TMEM136 (11760407_x_at) / Fold change /veh TMEM136 (11760407_x_at) / RFU CLDN22 /// WWC2 (11732394_at) / Fold change /veh CLDN22 /// WWC2 (11732394_at) / RFU HLA-DPB1 (11760878_x_at) / Fold change /veh HLA-DPB1 (11760878_x_at) / RFU SPINT1 (11716480_a_at) / Fold change /veh SPINT1 (11716480_a_at) / RFU GAP43 (11754022_s_at) / Fold change /veh GAP43 (11754022_s_at) / RFU A4GNT (11735810_at) / Fold change /veh A4GNT (11735810_at) / RFU PRB3 (11715151_x_at) / Fold change /veh PRB3 (11715151_x_at) / RFU TUBB4B (11761932_at) / Fold change /veh TUBB4B (11761932_at) / RFU CAPN14 (11732068_a_at) / Fold change /veh CAPN14 (11732068_a_at) / RFU TMCC2 (11721928_a_at) / Fold change /veh TMCC2 (11721928_a_at) / RFU IRGQ (11745062_a_at) / Fold change /veh IRGQ (11745062_a_at) / RFU FAM174B (11720279_a_at) / Fold change /veh FAM174B (11720279_a_at) / RFU TMPRSS4 (11748680_a_at) / Fold change /veh TMPRSS4 (11748680_a_at) / RFU FAM212B (11763350_a_at) / Fold change /veh FAM212B (11763350_a_at) / RFU PLEKHG5 (11743358_a_at) / Fold change /veh PLEKHG5 (11743358_a_at) / RFU ZSCAN30 (11745921_a_at) / Fold change /veh ZSCAN30 (11745921_a_at) / RFU CMKLR1 (11741424_a_at) / Fold change /veh CMKLR1 (11741424_a_at) / RFU LOC101060620 /// MAPK8IP1 (11723275_at) / Fold change /veh LOC101060620 /// MAPK8IP1 (11723275_at) / RFU SPTSSB (11747773_x_at) / Fold change /veh SPTSSB (11747773_x_at) / RFU PRSS12 (11739890_at) / Fold change /veh PRSS12 (11739890_at) / RFU BIN1 (11741810_x_at) / Fold change /veh BIN1 (11741810_x_at) / RFU WNT11 (11732464_a_at) / Fold change /veh WNT11 (11732464_a_at) / RFU C10orf10 (11716521_a_at) / Fold change /veh C10orf10 (11716521_a_at) / RFU C5orf56 (11738089_at) / Fold change /veh C5orf56 (11738089_at) / RFU CYB561 (11721691_x_at) / Fold change /veh CYB561 (11721691_x_at) / RFU ANKRD19P (11752326_a_at) / Fold change /veh ANKRD19P (11752326_a_at) / RFU OR2T12 /// OR2T33 /// OR2T8 (11738714_s_at) / Fold change /veh OR2T12 /// OR2T33 /// OR2T8 (11738714_s_at) / RFU VCAN (11748164_a_at) / Fold change /veh VCAN (11748164_a_at) / RFU JSRP1 (11732532_at) / Fold change /veh JSRP1 (11732532_at) / RFU KRTAP10-11 (11738290_x_at) / Fold change /veh KRTAP10-11 (11738290_x_at) / RFU MYO3A (11730013_a_at) / Fold change /veh MYO3A (11730013_a_at) / RFU EBF3 (11725865_a_at) / Fold change /veh EBF3 (11725865_a_at) / RFU CAMK2N1 (11719241_x_at) / Fold change /veh CAMK2N1 (11719241_x_at) / RFU C5orf56 (11738088_a_at) / Fold change /veh C5orf56 (11738088_a_at) / RFU OLFML3 (11715873_a_at) / Fold change /veh OLFML3 (11715873_a_at) / RFU LOC100653217 /// NTM (11731650_a_at) / Fold change /veh LOC100653217 /// NTM (11731650_a_at) / RFU MAPK11 (11762145_a_at) / Fold change /veh MAPK11 (11762145_a_at) / RFU FIZ1 (11724087_x_at) / Fold change /veh FIZ1 (11724087_x_at) / RFU OASL (11726364_x_at) / Fold change /veh OASL (11726364_x_at) / RFU SOX15 (11748057_x_at) / Fold change /veh SOX15 (11748057_x_at) / RFU CD79A (11719716_a_at) / Fold change /veh CD79A (11719716_a_at) / RFU HIST1H1D (11736915_at) / Fold change /veh HIST1H1D (11736915_at) / RFU CASKIN2 (11723855_a_at) / Fold change /veh CASKIN2 (11723855_a_at) / RFU LOC730098 (11760151_x_at) / Fold change /veh LOC730098 (11760151_x_at) / RFU OR4N2 (11742367_at) / Fold change /veh OR4N2 (11742367_at) / RFU PRRT2 (11749266_a_at) / Fold change /veh PRRT2 (11749266_a_at) / RFU SNX32 (11753110_a_at) / Fold change /veh SNX32 (11753110_a_at) / RFU CDHR5 (11726645_a_at) / Fold change /veh CDHR5 (11726645_a_at) / RFU RCAN1 (11760418_a_at) / Fold change /veh RCAN1 (11760418_a_at) / RFU FAM167A (11723789_a_at) / Fold change /veh FAM167A (11723789_a_at) / RFU FAM26E (11764081_at) / Fold change /veh FAM26E (11764081_at) / RFU ISYNA1 (11749810_s_at) / Fold change /veh ISYNA1 (11749810_s_at) / RFU ACY1 (11761880_at) / Fold change /veh ACY1 (11761880_at) / RFU 11764098_at / Fold change /veh 11764098_at / RFU SAMD14 (11745864_x_at) / Fold change /veh SAMD14 (11745864_x_at) / RFU NPB (11741838_a_at) / Fold change /veh NPB (11741838_a_at) / RFU TMPRSS6 (11731388_a_at) / Fold change /veh TMPRSS6 (11731388_a_at) / RFU KRTAP10-2 (11738614_at) / Fold change /veh KRTAP10-2 (11738614_at) / RFU ARHGAP8 /// PRR5-ARHGAP8 (11727945_x_at) / Fold change /veh ARHGAP8 /// PRR5-ARHGAP8 (11727945_x_at) / RFU KRTAP5-7 /// NADSYN1 (11734609_at) / Fold change /veh KRTAP5-7 /// NADSYN1 (11734609_at) / RFU RASL12 (11751679_a_at) / Fold change /veh RASL12 (11751679_a_at) / RFU CDKN2B (11736163_a_at) / Fold change /veh CDKN2B (11736163_a_at) / RFU PRF1 (11729649_at) / Fold change /veh PRF1 (11729649_at) / RFU, ZNF638 /// ZNF638-IT1 / Fold change vs veh, ZNF638 /// ZNF638-IT1 / RFU, PANK3 / Fold change vs veh, PANK3 / RFU, SH3YL1 / Fold change vs veh, SH3YL1 / RFU, ZEB2 / Fold change vs veh, ZEB2 / RFU, NRIP1 / Fold change vs veh, NRIP1 / RFU, PTTG1IP / Fold change vs veh, PTTG1IP / RFU, CAPN2 / Fold change vs veh, CAPN2 / RFU, MED14 / Fold change vs veh, MED14 / RFU, SNORA58 / Fold change vs veh, SNORA58 / RFU, C1orf63 / Fold change vs veh, C1orf63 / RFU, LRRFIP1 / Fold change vs veh, LRRFIP1 / RFU, NDUFAF7 / Fold change vs veh, NDUFAF7 / RFU, SLC12A2 / Fold change vs veh, SLC12A2 / RFU, IBTK / Fold change vs veh, IBTK / RFU, ESF1 / Fold change vs veh, ESF1 / Fold change vs veh, TMEM50B / RFU, TAOK1 / Fold change vs veh, TAOK1 / RFU, ACBD3 / Fold change vs veh, ACBD3 / RFU, TMA16 / Fold change vs veh, TMA16 / RFU, RWDD3 / Fold change vs veh, RWDD3 / RFU, BCAT1 / Fold change vs veh, BCAT1 / RFU, EDEM3 / Fold change vs veh, EDEM3 / RFU, TMEM33 / Fold change vs veh, TMEM33 / RFU, WDR75 / Fold change vs veh, WDR75 / RFU, AHCTF1 / Fold change vs veh, AHCTF1 / RFU, TFRC / Fold change vs veh, TFRC / RFU, ZDHHC17 / Fold change vs veh, ZDHHC17 / RFU, NOM1 / Fold change vs veh, NOM1 / RFU, ARL8B / Fold change vs veh, ARL8B / RFU, ZBTB11 / Fold change vs veh, ZBTB11 / RFU, TAMM41 / Fold change vs veh, TAMM41 / RFU, KIAA1704 /// LOC100996395 / Fold change vs veh, KIAA1704 /// LOC100996395 / RFU, ING1 / Fold change vs veh, ING1 / RFU, TRMT61B / Fold change vs veh, TRMT61B / RFU, FUBP3 / Fold change vs veh, FUBP3 / RFU, TP53 / Fold change vs veh, TP53 / RFU, TNKS2 / Fold change vs veh, TNKS2 / RFU, ZFP14 / Fold change vs veh, ZFP14 / RFU, ACTR2 / Fold change vs veh, ACTR2 / RFU, PPP3R1 / Fold change vs veh, PPP3R1 / RFU, PIK3R1 / Fold change vs veh, PIK3R1 / RFU, HNRNPA1 / Fold change vs veh, HNRNPA1 / RFU, RNF170 / Fold change vs veh, RNF170 / RFU, ZNF28 / Fold change vs veh, ZNF28 / RFU, RNGTT / Fold change vs veh, RNGTT / RFU, OGT / Fold change vs veh, OGT / RFU, BRD1 / Fold change vs veh, BRD1 / RFU, MARS / Fold change vs veh, MARS / RFU, ZNF655 / Fold change vs veh, ZNF655 / RFU, FAHD1 / Fold change vs veh, FAHD1 / RFU, BDP1 / Fold change vs veh, BDP1 / RFU, LRRCC1 / Fold change vs veh, LRRCC1 / RFU, ARID1A / Fold change vs veh, ARID1A / RFU, ZNF146 / Fold change vs veh, ZNF146 / RFU, ZNF330 / Fold change vs veh, ZNF330 / RFU, GPN3 / Fold change vs veh, GPN3 / RFU, C9orf123 / Fold change vs veh, C9orf123 / RFU, N4BP2L2 / Fold change vs veh, N4BP2L2 / RFU, ARFIP1 / Fold change vs veh, ARFIP1 / RFU, FAM179B / Fold change vs veh, FAM179B / RFU, BCL10 / Fold change vs veh, BCL10 / RFU, UHRF1BP1L / Fold change vs veh, UHRF1BP1L / RFU, BET1 / Fold change vs veh, BET1 / RFU, CNOT2 / Fold change vs veh, CNOT2 / RFU, ZNF268 / Fold change vs veh, ZNF268 / Fold change vs veh, ZNF507 / RFU, DGCR2 / Fold change vs veh, DGCR2 / RFU, WDSUB1 / Fold change vs veh, WDSUB1 / Fold change vs veh, HSP90B1 /// MIR3652 / RFU, ADSS / Fold change vs veh, ADSS / RFU, GK / Fold change vs veh, GK / RFU, ZNF148 / Fold change vs veh, ZNF148 / RFU, TAF9 / Fold change vs veh, TAF9 / RFU, SLC1A5 / Fold change vs veh, SLC1A5 / RFU, SLMO2 / Fold change vs veh, SLMO2 / RFU, ABCC4 / Fold change vs veh, ABCC4 / RFU, LOC101060439 /// RAP1B / Fold change vs veh, LOC101060439 /// RAP1B / RFU, RFX7 / Fold change vs veh, RFX7 / RFU, GTPBP10 / Fold change vs veh, GTPBP10 / RFU, CNEP1R1 / Fold change vs veh, CNEP1R1 / RFU, BIVM-ERCC5 /// ERCC5 / Fold change vs veh, BIVM-ERCC5 /// ERCC5 / RFU, ILF3 / Fold change vs veh, ILF3 / RFU 11762660_at / Fold change /veh 11762660_at / RFU VCAN (11757783_s_at) / Fold change /veh VCAN (11757783_s_at) / RFU DDX43 (11728927_at) / Fold change /veh DDX43 (11728927_at) / RFU KRT8 (11758188_x_at) / Fold change /veh KRT8 (11758188_x_at) / RFU NKD1 (11759106_at) / Fold change /veh NKD1 (11759106_at) / RFU SRD5A1 (11742802_a_at) / Fold change /veh SRD5A1 (11742802_a_at) / RFU TPSAB1 /// TPSB2 (11721975_s_at) / Fold change /veh TPSAB1 /// TPSB2 (11721975_s_at) / RFU GSTM3 (11746129_a_at) / Fold change /veh GSTM3 (11746129_a_at) / RFU IL23R (11737362_x_at) / Fold change /veh IL23R (11737362_x_at) / RFU TMEM51 (11727254_a_at) / Fold change /veh TMEM51 (11727254_a_at) / RFU PIWIL2 (11732686_x_at) / Fold change /veh PIWIL2 (11732686_x_at) / RFU ORM1 (11744905_x_at) / Fold change /veh ORM1 (11744905_x_at) / RFU CCDC152 (11743942_at) / Fold change /veh CCDC152 (11743942_at) / RFU ECM1 (11717891_a_at) / Fold change /veh ECM1 (11717891_a_at) / RFU IL23R (11748794_a_at) / Fold change /veh IL23R (11748794_a_at) / RFU TNFAIP8L3 (11732012_x_at) / Fold change /veh TNFAIP8L3 (11732012_x_at) / RFU MBOAT4 (11741988_at) / Fold change /veh MBOAT4 (11741988_at) / RFU 11764193_at / Fold change /veh 11764193_at / RFU TMEM53 (11763286_at) / Fold change /veh TMEM53 (11763286_at) / RFU MAGEB2 (11727129_at) / Fold change /veh MAGEB2 (11727129_at) / RFU TMEM200A (11744735_a_at) / Fold change /veh TMEM200A (11744735_a_at) / RFU CCDC152 (11751479_a_at) / Fold change /veh CCDC152 (11751479_a_at) / RFU FAM211A (11726209_a_at) / Fold change /veh FAM211A (11726209_a_at) / RFU RGS16 (11746705_a_at) / Fold change /veh RGS16 (11746705_a_at) / RFU VCAN (11755009_s_at) / Fold change /veh VCAN (11755009_s_at) / RFU RHOB (11743442_s_at) / Fold change /veh RHOB (11743442_s_at) / RFU RGS16 (11720943_a_at) / Fold change /veh RGS16 (11720943_a_at) / RFU RGS16 (11720944_at) / Fold change /veh RGS16 (11720944_at) / RFU, VPS4B / Fold change vs veh, VPS4B / RFU, CREB1 / Fold change vs veh, CREB1 / RFU, DNAJC13 / Fold change vs veh, DNAJC13 / RFU, GNAQ / Fold change vs veh, GNAQ / RFU, CDK5R1 / Fold change vs veh, CDK5R1 / RFU, ZRANB3 / Fold change vs veh, ZRANB3 / RFU, CUL4A / Fold change vs veh, CUL4A / RFU, CCNY / Fold change vs veh, CCNY / RFU, UFL1 / Fold change vs veh, UFL1 / RFU, COG3 / Fold change vs veh, COG3 / RFU, DIAPH2 / Fold change vs veh, DIAPH2 / RFU, SKA2 / Fold change vs veh, SKA2 / RFU, AFF3 / Fold change vs veh, AFF3 / RFU, LMF1 / Fold change vs veh, LMF1 / RFU, IPO11 / Fold change vs veh, IPO11 / RFU, DFFB / Fold change vs veh, DFFB / RFU, FOXP1 / Fold change vs veh, FOXP1 / RFU, CARD8 / Fold change vs veh, CARD8 / RFU, STRN3 / Fold change vs veh, STRN3 / RFU, ADK / Fold change vs veh, ADK / RFU, RASSF2 / Fold change vs veh, RASSF2 / RFU, WIPF1 / Fold change vs veh, WIPF1 / RFU, LARP1B / Fold change vs veh, LARP1B / RFU, RASA1 / Fold change vs veh, RASA1 / RFU, RB1 / Fold change vs veh, RB1 / RFU, PPFIA1 / Fold change vs veh, PPFIA1 / RFU, MAT2A / Fold change vs veh, MAT2A / RFU, CCT5 / Fold change vs veh, CCT5 / RFU, WDR92 / Fold change vs veh, WDR92 / RFU, CUX1 / Fold change vs veh, CUX1 / RFU, TTC7A / Fold change vs veh, TTC7A / RFU, TMEM135 / Fold change vs veh, TMEM135 / RFU, DEPTOR / Fold change vs veh, DEPTOR / RFU, CPM / Fold change vs veh, CPM / RFU, DNAJB6 / Fold change vs veh, DNAJB6 / RFU, CACNA2D3 / Fold change vs veh, CACNA2D3 / RFU, DTX4 / Fold change vs veh, DTX4 / RFU, TFCP2 / Fold change vs veh, TFCP2 / RFU, GMCL1 /// GMCL1P1 / Fold change vs veh, GMCL1 /// GMCL1P1 / RFU, AEBP2 / Fold change vs veh, AEBP2 / RFU, SNHG1 /// SNORD22 /// SNORD25 /// SNORD26 /// SNORD27 /// SNORD28 /// SNORD29 /// SNORD31 / Fold change vs veh, SNHG1 /// SNORD22 /// SNORD25 /// SNORD26 /// SNORD27 /// SNORD28 /// SNORD29 /// SNORD31 / Fold change (Aza/veh), C12orf56 (ProbeSet 11735607_a_at) / Fold change (ACY-1035/veh), C12orf56 (ProbeSet 11735607_a_at) / Fold change (Aza/veh), FGFR1OP (ProbeSet 11751329_s_at) / Fold change (ACY-1035/veh), FGFR1OP (ProbeSet 11751329_s_at) / Fold change (Aza/veh), VPS36 (ProbeSet 11739960_a_at) / Fold change (ACY-1035/veh), VPS36 (ProbeSet 11739960_a_at) / RFU SYPL1 (11715823_x_at) / Fold change /veh SYPL1 (11715823_x_at) / RFU IGFBP7 (11715501_s_at) / Fold change /veh IGFBP7 (11715501_s_at) / RFU REEP3 (11722064_at) / Fold change /veh REEP3 (11722064_at) / RFU IGLL1 (11728026_x_at) / Fold change /veh IGLL1 (11728026_x_at): dose or concentration left out as unconfirmed
Settings: ProbeSet 11752001_a_at; LIST D

SMILES: Nc1ncn([C@@H]2O[C@H](CO)[C@@H](O)[C@H]2O)c(=O)n1 [azacitidine]
- Fold change vs veh, CUL4A: 0.81

Reference: publication PMC5218480 (PLoS ONE, 2017)
